In patent publication US20220193042A1, “NITAZOXANIDE AND THIAZOLIDES FOR USE IN THE TREATMENT OF DISEASES ASSOCIATED WITH OXIDATIVE STRESS” (GENFIT, priority 2019, published 2022):

Columns and labels:
Nrf2 target genes = assay: Enrichment of Nrf2 target genes in hepatic transcriptome (RNAseq), CDAA/c NASH model; type: in vivo, C57Bl/6J mice; details: NTZ+CDAA/c vs CDAA/c; Nrf2 target genes are 1.3% of whole identified transcriptome
Protocol: In the current study, the preventive effects of NTZ 100 mg/kg/day were assessed in a murine model. 6 week-old male C57Bl/6J mice were fed a control (CSAA) diet (n=8), CDAA+1% cholesterol diet (n=12), or CDAA+1% cholesterol diet supplemented with NTZ 100 mg/kg/day (n=8) for 12 weeks. The food was purchased from Ssniff® company (Soest, Germany). Nitazoxanide (Interchim, Ref #RQ550) was incorporated by Ssniff® into CDAA+1% chol diet in powder form to the required dose.
The body weight and the food intake were monitored twice per week. On the last day of treatment, mice were sacrificed after a 6 h fasting period. The liver was rapidly excised for transcriptomic and histological studies.
Upon measurement of RNA samples concentration by nanodrop, the quality was assessed using bioanalyser. […]
Reads were cleaned using Trimmomatic v.0.36 with the following parameters: SLIDINGWINDOW:5:20 LEADING:30 TRAILING:30 MINLEN:60.Then reads were aligned on the genome reference (Mus musculus GRCm38.90) with rnacocktail using hisat2 v.2.1.0 as aligner with default parameters. […]
To identify differentially expressed genes (DE genes), we used R (version 3.4.3) and the DESEa2 library (v. 1.18.1). […] Briefly, the count matrix produced by FeatureCounts was analyzed by the DESeqDataSetFromMatrixO function followed by the DEseq( ) function from the DESeq2 library. […]

Nrf2-ARE signaling = assay: ARE Reporter - HepG2 cell line luciferase assay; type: cell-based, human; details: 1 μM TZ, 18 h exposure, vs vehicle
Protocol: ARE Reporter—Hep G2 cells(BPS Bioscience, Inc., San Diego cat #60513) were cultured following manufacturer's instructions. After thawing (BPS thaw medium 1, cat #60187), cells were cultured in growth-medium (BPS growth medium 1K, cat #79533) and subsequently plated at a density of 40 000 cells par well in a 96-well microplate in 45 μl of assay medium (BPS thaw medium). TZ (Interchim; cat #RP253) & DL-Sulforaphane (Sigma; cat #S4441) were dissolved in DMSO and diluted into assay medium. 5 μl of 10× dilution were added on cells to reach a final concentration of 1 μM and 3 μM for TZ and DL-Sulforaphane (DL-Sulfo) respectively. After 18 h exposure, luciferase activity was determined. 50 μl of One-Step Luciferase assay system (BPS cat #60690) were added per well and after −15 min of rocking at room temperature, luminescence was measured using a luminometer.

Hep G2 cells = assay: Intracellular GSH detection (ThiolTracker Violet) in menadione-stressed Hep G2 cells; type: cell-based, human; details: 1 μM TZ preincubated 1 hour, then 100 μM menadione for 2 hours
Protocol: Tizoxanide (Interchim; cat #RP253) was dissolved in DMF (Sigma; cat #227056). Menadione (Sigma; cat #M2518) and N-Acetylcysteine were dissolved (Sigma; cat #A9165) in water. Hep G2 cells (ECACC) were plated at a density of 20 000 cells par well into a 96-well microplate in 100 μl of DMEM (Gibco; cat #41965-039) supplemented with 1% P/S (Gibco; cat #15140-122), 1% glutamine(Gibco; cat #25030-024).The complete medium contained 10% SVF (Gibco; cat #10270-106). The next day, culture medium was removed and replaced by 100 μL of DMEM (Gibco; cat #31053-028) without Red Phenol and SVF but supplemented with 1% P/S (Gibco; cat #15140-122), 1% glutamine(Gibco; cat #25030-024). The serum deprived HepG2 were preincubated for 1 hour with TZ or N-Acetylcysteine (NAC) then exposed to Menadione (MND) for 2 hours. Compounds were dissolved in their respective vehicles a mentioned above and diluted in the deprived culture medium. […] The cellular level of reduced glutathione was subsequently monitored using the ThiolTracker Violet dye (Invitrogen, cat #T10096). Briefly, cells were washed two times with DPBS (Invitrogen, Cat #14287-080) then incubated for 30 min at 37° with 100 μl of prewarmed ThiolTracker Violet dye solution prepared in DPBS according the supplier 's instructions and fluorescence was measured (Ex:404 nm, Em: 526 nm)

Row | Structure (SMILES) | proportion of Nrf2-regulated genes among all differentially expressed genes (Nrf2 target genes) | ARE-mediated luciferase activity (ARE-mediated transcription) (Nrf2-ARE signaling) | prevention of MND-induced reduction of cellular GSH (Hep G2 cells)
1 | CC(=O)Oc1ccccc1C(=O)Nc1ncc([N+](=O)[O-])s1 [NTZ, [2-[(5-nitro-1,3-thiazol-2-yl)carbamoyl]phenyl]ethanoate] | more than 8% |  | 
2 | O=C(Nc1ncc([N+](=O)[O-])s1)c1ccccc1O [TZ, Tizoxanide] |  | significant increase | totally prevented
